From patent publication US20240423988A1, “Improvement of Tumor Immunogenicity by Means of Splicing-Controlling Compound” (Kyoto University, priority 2021, published 2024)

What was measured:
[1] = test system: MC38 cells; assay: RNA-seq analysis of RNA splicing patterns in MC38 cells; assay type: cell-based, murine
Method: [FIG. 4-1] FIG. 4. Identification of Compound 1-inducible splice-neoantigen candidates using RNA-seq analysis. A: A diagram of enhanced tumor immunity through compound 1-induced splice-neoantigens. B: A scheme for the screening of Compound 1-induced splice-neoantigen candidates through transcriptome analysis and prediction for MHC class I presentation. RNA-seq was conducted for MC38 cells treated with 10 μM Compound 1 or 0.1% DMSO for 6 hours in three biological replicates each. RNA-seq analysis was performed as detailed in the “Experimental Methods” section.
Aberrant selective splicing events in cancer cells may become a source of potential neoantigens. As it was confirmed that MHC class I in cancer cells is indispensable for the antitumor effects of Compound 1, Compound 1 was predicted to alter aberrant alternative splicing events and enhance the production of splice-neoantigens (FIG. 4-1A). To validate this concept, RNA-seq analysis was performed to assess RNA splicing patterns affected by Compound 1 in MC38 cells and splice products yielding potential neoantigens capable of binding to MHC class I (FIG. 4-1B). […] Next, to identify neoepitopes translating potential splice-neoantigens, splicing events elicited by Compound 1 that created abnormal coding sequences were extracted, and subsequently, whether these events create abnormal peptides were checked by comparing them with a reference peptide database.
With this approach, 169 Compound 1-induced non-annotated splice events for 130 genes were identified as neoantigen candidates, which were further subjected to prioritization based on the prediction scores for the binding affinity of each peptide to MHC class I alleles (H2-K^b and H2-D^b) with NetMHCpan4.1, the extents of splice rates, and mRNA expression (FIG. 4-2C).
RNA-Seq libraries were prepared using a TruSeq Stranded mRNA Library Kit (Illumina, San Diego, CA) and used for paired-end sequencing on an Illumina NovaSeq 6000 platform. RNA-seq data were mapped to the GRCm38 (mm10) genome sequence using HISAT2 program version 2.2.0 with the “--rna-strandness RF” option. Splice-junction information available from Ensembl gene annotation version 100 was used in this process. Mapped results were discarded when either of the paired reads was not mapped to the genome, or the relationships of mapping positions were abnormal.
For splicing analysis, rMATS program version 4.1.0 was used. For the reference transcript models used in the rMATS analysis, a set of new transcripts based on RNA-seq data was constructed using Cufflinks program version 2.2.1. Because the rMATS program skips soft-clipped reads and reads having indels in their alignment, bam files were modified to replace soft clipping and indel information as not changing the splice position information. After rMATS analysis, altered splicing events were extracted according to the following criteria: FDR<0.01, dPSI≥5.0, and average number of spliced reads≥15 in either of the samples.
Spliced regions were compared with Ensembl gene annotations for describing the amino acid sequence encoded in these regions. Amino acid sequences not observed in the original peptide database were searched and stored with seven amino acids margins from known sequences.

[2] = test system: colon, lung, and liver tissues; assay: RNA-seq of normal tissues from Compound 1-administered mice; assay type: in vivo
Description: In addition, the RNA-seq data corresponding to colon, lung, and liver tissues from Compound 1-administered mice was also examined to analyze the extent of splicing alterations. […] Considering that immune responses were not triggered by Compound 1 in these tissues, these altered splicing events in normal tissues were likely irrelevant to immunogenicity (FIGS. 2-2I to 2-3M).

[3] = test system: various murine cancer cell lines (LLC, Pan02, WEHI3, CT26, EG7, B16, MC38); assay: RNA-seq analysis of splice-neoantigen producing events in various murine cancer cell lines; assay type: cell-based; details: LLC, Pan02, WEHI3, CT26, EG7, B16
Method: [FIG. 5-2] Continuation of FIG. 5. D and E: RT-PCR analysis for splice-neoantigen coding forms (splice-NA forms) in MC38 cells treated with 10 µM Compound 1 or vehicle control (0.1% DMSO) for 6 hours. Actb served as a loading control. * represents p<0.05, ** represents p<0.01, and *** represents p<0.001. F: Splice-neoantigen producing rates calculated from RNA-seq data (n=3 biological replicates) are indicated as the APSI (Compound 1-DMSO). All data are shown as the mean±SEM. All experiments were performed at least twice. Statistical significance was determined using unpaired Student's t-test for (B) and (E).
Then, whether the Compound 1-induced splice-neoantigens are shared across cancer type was examined using murine lung carcinoma LLC, pancreatic ductal adenocarcinoma Pan02, leukemia WEHI3, colorectal adenocarcinoma CT26, lymphoma EG7, and skin melanoma B16 cells.
The effects of Compound 2 on RNA splicing events (splicing alterations) producing the aforementioned six splice-neoantigens in various murine cancer cell lines were investigated through RNA-Seq analysis in the same manner as in FIG. 5-2F, except that Compound 1 was replaced with Compound 2 (FIG. 8).

[4] = Systemic administration of a high dose to normal mice for 4 weeks (autoimmune reactions); assay type: in vivo
Method: [FIG. 2-2] Continuation of FIG. 2. H to M: Compound 1 (100 mg/kg) or vehicle control (0.5% CMC-Na) was orally administered to 7-week-old female C57BL/6N mice twice daily for 7 continuous days (J and K) or once daily for 4 weeks (I, L, and M), while αPD-L1 antibody or isotype control (isotype IgG) was intraperitoneally injected once weekly. The experimental scheme is indicated in (H). Body weights (n=6/group) were monitored weekly (I). Mice were sacrificed on day 7 (n=5/group) to analyze peripheral blood (J) and spleen (K).
[FIG. 2-3] Continuation of FIG. 2. Land M: Mice were sacrificed on day 28 (n=3/group) to perform CD8 immunohistochemical staining (IHC). Scale bars represent 50 μm. The number of CD8+ cells was counted using ImageJ software in three areas of each tissue. All data are shown as the mean±SEM. Experiments were performed at least twice for B to G, or once for others. *** p<0.001 vs. vehicle control was determined using one-way ANOVA followed by Bonferroni's multiple comparisons test.
Next, to determine whether the enhancement of cancer immunity by co-administration of Compound 1 and αPD-L1 raises concerns regarding autoimmune reactions, a high dose of Compound 1 was systemically administered to normal mice for 4 weeks (FIG. 2-2H).

[5] = test system: splenocytes (CD8^+ and CD4^+ T cells); assay: Ex vivo splenocyte culture assay (antigen-independent T cell activation); assay type: cell-based, mice; details: 24 hours

Clc1nc(NCc2ccco2)c2[nH]cnc2n1 [Compound 1]
exonization induced in neurofibromin 1 (Nf1) [1]: 108 bp | genes with induced non-annotated splice events ([1]; 10 μM, 6 hours): 130 | induced non-annotated splice events identified as neoantigen candidates ([1]; 10 μM, 6 hours): 169 | mRNA expression and splicing patterns of H2-K^b and PD-L1 ([1]; RNA-seq data): not significantly altered | mRNA expression of genes encoding conventional neoantigens ([1]; data not shown): no effect | induced splicing events fewer in normal tissues than in MC38 cells ([2]; colon, lung, liver): 50-60% | validated splice-neoantigen forms in normal tissues ([2]; data not shown): none of the validated splice-neoantigen forms were significantly induced | induced splice alterations shared across cancer type [3]: shared in most of the examined cells | leukocyte numbers and biochemical parameters in peripheral blood ([4]; data not shown): no alterations were observed | spleen weight, leukocyte numbers, and expression of T cell activation markers in spleen and peripheral blood ([4]; day 7, with or without αPD-L1): no effect | histological analysis of non-malignant tissues: CD8^+ T cells, inflammatory lesions ([4]; day 28, irrespective of co-treatment with αPD-L1): did not result in the accumulation of CD8^+ T cells or appearance of inflammatory lesions | body weight changes ([4]; throughout 4 weeks, with or without αPD-L1): comparable | CD44^+ and CD69^+ marker expressions in CD8^+ and CD4^+ T cells ([5]; flow cytometry): no such effects | secretion of inflammatory cytokines IFN-γ and TNF-α ([5]; supernatant): not observed
